The source of these data is patent publication US6057348A (Oregon State University, priority 1998, dated 2000).

As usually defined, the IC50 is the midpoint of a concentration-inhibition curve.

In data set [1] the test system is tubulin. Put plainly: Inhibition of tubulin polymerization (turbidimetric, 350 nm). As to conditions: 1.0 mg/mL tubulin, 0.8 M glutamate, 30°, 20 minutes; ± SD. Format: biochemical, bovine. As to the method:
(§1) Electrophoretically homogeneous bovine brain tubulin was prepared as described previously (20). Nonradiolabeled colchicine was obtained from Sigma and [^3 H]colchicine from Dupont-NEN. Stock 2.0 M solutions of monosodium glutamate were adjusted to pH 6.6 with HCl. MCF-7 breast cancer cells were obtained from Dr. D. Scudiero, National Cancer Institute. Curacin A is referred to in the tables provided below, and was obtained as stated in Gerwick's U.S. Pat. No. 5,324,739. All data presented for curacin A represent averages obtained in contemporaneous experiments with natural and synthetic drug. All drugs were dissolved in dimethyl sulfoxide, and control reaction mixtures contained an equivalent amount of the solvent.
Tubulin polymerization was followed turbidimetrically at 350 nm in Gilford model 250 spectrophotometers equipped with electronic temperature controllers. All concentrations refer to the final reaction volume of 0.25 mL, although the preincubation was performed in 0.24 mL, followed by addition of 10 μL of 10 mM GTP. Reaction mixtures contained 1.0 mg/mL tubulin, 0.8 M monosodium glutamate, 4% dimethyl sulfoxide and varying drug concentrations. Samples were preincubated for 15 minutes at 30° and chilled on ice. GTP was added to each reaction mixture, and these were placed in cuvettes held at 0°. Baselines were established, the temperature was raised to 30° (at a rate of about 0.5°/sec), and polymerization was followed for 20 minutes. IC50 values were determined by graphical interpolation of experimental points, with drug-containing samples compared to control reaction mixtures containing dimethyl sulfoxide but no drug. At least three independent IC50 values were obtained with each compound.
(§2) The R1 -R3 substituents referred to in Table 1 are with reference to Formula 11, which, for convenience, is reproduced above Table 1. [drawing 13]

For data set [2], the system named is tubulin. Put plainly: Inhibition of [3H]colchicine binding to tubulin (DEAE-cellulose filter method). Set-up: species or system bovine. Conditions: 5.0 μM [3H]colchicine, 1.0 μM tubulin; for Inhibition of Colchicine Binding % Inhibition ± SD: inhibitor 5.0 μM; for Inhibition of Colchicine Binding % Inhibition ± SD (values in parentheses): inhibitor 50 μM. Here is the method: as §1
The binding of [^3 H]colchicine to tubulin was measured by the DEAE-cellulose filter method as described by Kang et al., "N-acetylcolchinol O-methyl Ether and Thiocolchicine, Potent Analogs of Colchicine Modified in the C Ring: Evaluation of the Mechanistic Basis for Their Enhanced Biological Properties," J. Biol. Chem. 265:10255-1-259 (1990). Reaction mixtures contained 1.0 μM (0.1 mg/mL) tubulin, 1.0 M monosodium glutamate, 0.1 M glucose-1-phosphate, 1.0 mM MgCl2, 1.0 mM GTP, 0.5 mg/mL bovine serum albumin, 5% (v/v) dimethyl sulfoxide, 5.0 μM [^3 H]colchicine and inhibitor at either 5.0 or 50 μM as indicated. These reaction conditions were used because they strongly stabilize the colchicine binding activity of tubulin. The values presented represent averages of three experiments, each with duplicate samples.
as §2

A further data set concerns MCF-7 cells. Put plainly: Inhibition of MCF-7 breast cancer cell growth (sulforhodamine B). In kind it is cell-based. Conditions: Homo sapiens, MCF7; 48 hours drug exposure; ± SD. As to the method:
as §1
IC50 values for inhibition of cell growth were obtained by measuring the amount of total cell protein with the sulforhodamine B assay as described by Skehan et al., "New Colorimetric Cytotoxicity Assay for Anticancer-drug Screening," J. Natl. Cancer Inst., 82:1107-1112 (1990). MCF-7 cells were grown in RPMI 1640 medium containing 17% fetal calf serum, 12 μg/mL gentamicin sulfate and 2 mM glutamine at 37° in 5% CO2. Confluent cells were trypsinized, diluted 40-fold, and seeded into 96-well microtiter plates. After 24 hours of growth without drug, medium with varying concentrations of drug was added to different wells (final concentration of dimethyl sulfoxide, 0.1%). […] The values presented are averages from at least two independent experiments.
as §2

For a further data set, the system named is antimitotic activity. The experiment in a line: Biological activity of isolated curacins. As to conditions: various tests.
Data set [3] concerns 60 different human tumor cell lines. The experiment in a line: NCI 60-cell line screen / mode of action of curazole. Conditions: COMPARE mean-graph profiles / 60-cell line assay. In kind it is cell-based. As to the method:
In these examples, curazole was subjected to the drug screening procedure employed by the National Cancer Institute for the screening of drugs having possible anticancer utility. The screening procedure employed a diverse, disease-oriented panel consisting of 60 different human tumor cell lines organized into seven disease-specific subpanels. Curazole was tested over a wide range of concentrations for cytotoxic or growth-inhibitory effects against each cell line comprising the panel. The seven subpanels represented diverse histologies (leukemias, melanomas, and tumors of the lung, colon, kidney, ovary, and brain).
Curazole was tested over a period of several days. During this period the cells were continuously exposed to five log10 -spaced concentrations of the drug starting at about 10^-4 μg/mL. The tests produced 60 individual dose-response curves, one for each cell line (i.e., one for each example).
To produce data for the mean-graph format shown in FIG. 2, a concentration of the extract that produced a target level response was calculated for each cell line. Three different response parameters were evaluated. […] The second response parameter was the total growth inhibition ("TGI"), which is the concentration at which the number of tumor cells remaining at the end of the incubation period substantially equaled the number of tumor cells existing at the start of the incubation period. […]

Data set [4] is described as follows: Chemical stability on storage neat.
The test system of another data set is microtubule assembly. As to conditions: background; cited from earlier work.
Another data set has as its system brine shrimp. As to conditions: Example 1 of U.S. Pat. No. 5,324,739; cited from earlier work.
A further data set concerns β-tubulin. Conditions: background; cited from earlier work.
For data set [5], the system named is tubulin. Conditions: background; cited from earlier work.
Another data set deals with cell growth and mitosis. Conditions: background; cited from earlier work.
The conditions of data set [6]: stored neat; cited from earlier work.
Another data set relates to microtubule ends. As to conditions: low concentrations; background; cited from earlier work.
Data set [7] concerns colchicine site of tubulin. Conditions: background; cited from earlier work.

“Also recorded” adds a separate entry of the source.

Regarding `CCC[C@@H](CC/C(C)=C/C=C/CCCC[C@@H]1CSC([C@@H]2C[C@@H]2C)=N1)OC` [C3,4,15,16 Tetrahydro, 3,4,15,16-tetrahydrocuracin A], in the data set on tubulin [1], the IC50 came out at 4600 ± 1000 nM. For the same compound, in the data set with tubulin [2], the “Inhibition of Colchicine Binding % Inhibition ± SD” value was 1 ± 1% and the “Inhibition of Colchicine Binding % Inhibition ± SD (values in parentheses)” value is listed as 28 ± 6%. In addition, it took 3300 ± 2000 nM to reach half-maximal inhibition in the data set with MCF-7 cells (IC50).

As to `C=CC[C@H](O)CC/C(C)=C/C=C/CC/C=C\[C@@H]1CSC([C@@H]2C[C@@H]2C)=N1` [C13 Hydroxyl], the half-maximal inhibitory concentration (IC50) with tubulin [1] came to 870 ± 90 nM; in the data set on MCF-7 cells, 450 ± 20 nM. Besides, the “Inhibition of Colchicine Binding % Inhibition ± SD” value in the data set with tubulin [2] is 82 ± 7%.

Take `C=CC[C@@H](CC/C(C)=C/C=C\CC/C=C\[C@@H]1CSC([C@@H]2C[C@@H]2C)=N1)OC` [Curacin B]: the “biological activity, particularly antimitotic activity” value in the data set with antimitotic activity was “substantial biological activity, particularly antimitotic activity”.

`C=CC[C@@H](CC/C(C)=C/C=C/CC/C=C\[C@@H]1CSC([C@@H]2C[C@@H]2C)=N1)OCOC` [C13 Methyl-methoxy]: the half-inhibitory concentration (IC50) came to 640 ± 200 nM with tubulin [1] and 220 nM in the data set with MCF-7 cells. The “Inhibition of Colchicine Binding % Inhibition ± SD” value in the data set with tubulin [2] worked out at 81 ± 6%.

As for `C=CC[C@@H](CC/C(C)=C/C=C/CC/C=C\c1csc([C@@H]2C[C@@H]2C)n1)OC` [Curazole, [13R,19R,21S]-1,2-didehydrocuracin A], the mode of action result in data set [3] was “functions as an antimitotic and has a mode of action similar to a number of conventional antineoplastics”. In addition, the IC50 in the data set with tubulin [1] came out at 740 ± 10 nM; in the data set on MCF-7 cells, 300 ± 70 nM. For the same compound, in the data set on tubulin [2], the “Inhibition of Colchicine Binding % Inhibition ± SD” value came out at 74 ± 11%.

With `C=CC[C@@H](CC/C(C)=C\C=C\CC/C=C\[C@@H]1CSC([C@@H]2C[C@@H]2C)=N1)OC` [Curacin C], the “biological activity, particularly antimitotic activity” value with antimitotic activity is reported as “substantial biological activity, particularly antimitotic activity”.

Regarding `C=CC[C@@H](CC/C(C)=C/C=C/CC/C=C\[C@@H]1CSC([C@H]2C[C@@H]2C)=N1)OCOC` [C13 Methyl-methoxy, Epi C19], the IC50 in the data set with tubulin [1] is 3200 ± 300 nM. In the data set with tubulin [2], the “Inhibition of Colchicine Binding % Inhibition ± SD” value came out at 16 ± 3% and the “Inhibition of Colchicine Binding % Inhibition ± SD (values in parentheses)” value came out at 32 ± 4%. The compound also had an IC50 in the data set with MCF-7 cells of 3100 ± 2000 nM.

For the compound `C=CCC1(CC/C(C)=C/C=C/CC/C=C\[C@@H]2CSC([C@@H]3C[C@@H]3C)=N2)OCCO1` [C13 Ethylene-dioxy], the IC50 with tubulin [1] was determined as 780 ± 300 nM; in the data set on MCF-7 cells, 30 ± 10 nM. Moreover, the “Inhibition of Colchicine Binding % Inhibition ± SD” value in the data set with tubulin [2] was determined as 92 ± 1%.

In the case of `CCC[C@@H](CC/C(C)=C/C=C/CC/C=C\[C@@H]1CSC([C@@H]2C[C@@H]2C)=N1)OC` [C15,16-dihydro], the concentration for half-maximal inhibition (IC50) amounted to 1200 ± 200 nM with tubulin [1] and 46 nM in the data set on MCF-7 cells. Further, the “Inhibition of Colchicine Binding % Inhibition ± SD” value in the data set with tubulin [2] is on record as 85 ± 7%.

As for `C=CC[C@@H](CC/C=C/C=C/CC/C=C\[C@@H]1CSC([C@@H]2C[C@@H]2C)=N1)OC` [Curacin D], the “biological activity, particularly antimitotic activity” value in the data set on antimitotic activity is reported as “substantial biological activity, particularly antimitotic activity”. The “Inhibition of Colchicine Binding % Inhibition ± SD” value with tubulin [2] is recorded as 53 ± 10%. This compound yielded an IC50 in the data set on MCF-7 cells of 340 ± 100 nM.

Regarding `C=CC[C@@H](CC/C(C)=C/C=C/CC/C=C\[C@@H]1CSC([C@@H]2C[C@@H]2C)=N1)OC` [Curacin A], in [4] (particularly when stored neat), the stability entry was “limited stability”. Further, in data set [4] (stored neat versus stored under a solvent), the “biological activity after storage neat” value is given as “less biological activity than curacin A stored under a solvent”. Moreover, the half-maximal inhibitory concentration (IC50) in the data set on tubulin [1] stood at 720 ± 200 nM; in the data set on MCF-7 cells it was 38 ± 10 nM. The “inhibition of microtubule assembly” value in the data set on microtubule assembly is on record as “inhibits microtubule assembly”. Further, the “effectiveness for reducing a population of arthropods (brine shrimp)” value with brine shrimp was “effectiveness”. In the data set on β-tubulin, the “formation of the cys239-cys354 cross link” value is listed as “inhibits formation of the cys239-cys354 cross link”. Besides, in the data set with antimitotic activity, the “biological activity, particularly antimitotic activity” value is given as “substantial biological activity, particularly antimitotic activity”. In addition, the “Inhibition of Colchicine Binding % Inhibition ± SD” value with tubulin [2] stood at 94 ± 2%. Also, the “uncoupled GTPase reaction” value with tubulin [5] is on record as “stimulated the uncoupled GTPase reaction”. Also, in the data set with cell growth and mitosis, the “inhibition of cell growth and mitosis” value was “potent inhibitor of cell growth and mitosis”. In addition, the chemical stability entry in data set [6] is “limited chemical stability”. Also, in the data set with microtubule ends, the “tubulin turnover at microtubule ends” value is “increase tubulin turnover at microtubule ends”. In addition, in [7], the “binding at colchicine site of tubulin” value was “binding rapidly and dissociating slowly from tubulin; also recorded: binding rapidly and tightly at the colchicine site of tubulin”. For the same compound, the “inhibition of the binding of colchicine to tubulin” value in data set [7] is given as “potent competitive inhibitor of the binding of colchicine to tubulin”.

Turning to `C=CC[C@H](O)CC/C(C)=C/C=C/CC/C=C\[C@@H]1CSC([C@H]2C[C@@H]2C)=N1` [C13 Hydroxyl, Epi C19], the half-inhibitory concentration (IC50) was 730 ± 100 nM with tubulin [1] and 610 ± 200 nM in the data set with MCF-7 cells. Also, the “Inhibition of Colchicine Binding % Inhibition ± SD” value in the data set on tubulin [2] was found to be 71 ± 5%.

In the case of `C=CCCc1nc(/C=C\CC/C=C/C=C(\C)CC[C@H](CC=C)OC)cs1` [1-butene derivative], the half-inhibitory concentration (IC50) was found to be 920 ± 200 nM with tubulin [1] and 300 ± 200 nM with MCF-7 cells. The “Inhibition of Colchicine Binding % Inhibition ± SD” value in the data set on tubulin [2] is reported as 83 ± 6%.
